Reference: PubChem BioAssay (NCI)
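Five concentrations, 48 hours, 96-well plates. GI50 is the concentration that inhibits growth by half. TGI denotes the concentration required for complete inhibition of growth.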

Key:
Test in all cases: DTP human tumour cell line panel, 48 h
ACHN renal = tested on: ACHN renal
CAKI-1 renal = tested on: CAKI-1 renal
K-562 leukemia = tested on: K-562 leukemia
MALME-3M melanoma = tested on: MALME-3M melanoma
OVCAR-3 ovarian = tested on: OVCAR-3 ovarian
SN12C renal = tested on: SN12C renal
UACC-257 melanoma = tested on: UACC-257 melanoma
UACC-62 melanoma = tested on: UACC-62 melanoma
MCF7 breast = tested on: MCF7 breast
PC-3 prostate = tested on: PC-3 prostate

Compound	TGI (ACHN renal)	TGI (CAKI-1 renal)	TGI (K-562 leukemia)	TGI (MALME-3M melanoma)	TGI (OVCAR-3 ovarian)	TGI (SN12C renal)	TGI (UACC-257 melanoma)	TGI (UACC-62 melanoma)	TGI (MCF7 breast)	TGI (PC-3 prostate)	GI50 (ACHN renal)	GI50 (CAKI-1 renal)	GI50 (K-562 leukemia)	GI50 (MALME-3M melanoma)	GI50 (OVCAR-3 ovarian)	GI50 (PC-3 prostate)	GI50 (SN12C renal)	GI50 (UACC-257 melanoma)	GI50 (UACC-62 melanoma)	GI50 (MCF7 breast)
Cc1ccc(C2=[N+]([O-])c3ccccc3C2=O)cc1	32 µM	> 100 µM	41 µM	41 µM	32.2 µM	37.8 µM	33 µM	33.1 µM	–	–	–	–	–	–	–	–	–	–	–	–
COC(=O)C1Cc2c(n(C)c3ccccc23)C(c2ccccc2)N1 (stereo unspecified)	> 100 µM	> 100 µM	> 100 µM	> 100 µM	> 100 µM	> 100 µM	32 µM	> 100 µM	–	–	–	–	–	–	–	–	–	–	–	–
O=C1CCCSCCCC(=O)CCCSCCC1	–	–	> 100 µM	–	> 100 µM	> 100 µM	> 100 µM	> 100 µM	> 100 µM	> 100 µM	–	–	–	–	–	–	–	–	–	–
NC(=O)c1csc(C2O[C@@H](COP(=O)(O)OP(=O)(O)OC[C@H]3OC(n4cnc5c(N)ncnc54)[C@H](O)[C@@H]3O)[C@H](O)[C@@H]2O)n1 (stereo partly specified)	> 100 µM	> 100 µM	> 100 µM	> 100 µM	> 100 µM	> 100 µM	> 100 µM	> 100 µM	–	–	–	–	–	–	–	–	–	–	–	–
O=C(Nc1ccccc1)O/N=C1/CCCC/C1=C\c1ccccc1	30.5 µM	29.2 µM	29.1 µM	–	28.5 µM	31 µM	35.1 µM	30 µM	–	–	–	–	–	–	–	–	–	–	–	–
COc1ccc(-c2nc3sccn3c2/C=C/C(=O)c2cc(OC)c(OC)c(OC)c2)cc1OC	> 100 µM	> 100 µM	> 100 µM	54.1 µM	5.71 µM	42.8 µM	7.17 µM	5.55 µM	–	6.96 µM	3.24 µM	3.01 µM	2.41 µM	3.33 µM	2.18 µM	2.21 µM	3.06 µM	2.65 µM	2.15 µM	–
C=C1C(=O)O[C@H]2[C@H]1CC/C(COC(=O)/C=C/c1cccnc1)=C\CC[C@@]1(C)O[C@@H]21	–	–	6.13 µM	3.63 µM	1.76 µM	7.92 µM	3.54 µM	5 µM	2.72 µM	22.1 µM	–	–	1.04 µM	1.69 µM	0.494 µM	8.28 µM	2.38 µM	1.73 µM	1.89 µM	0.748 µM
O=[N+]([O-])c1ccc2c(c1)OCCOCCOc1ccc([N+](=O)[O-])cc1OCCOCCO2	> 100 µM	> 100 µM	> 100 µM	> 100 µM	> 100 µM	> 100 µM	> 100 µM	> 100 µM	–	–	–	–	–	–	–	–	–	–	–	–
N#CC12CCC(O)C(CC1)C2=O (stereo unspecified)	> 100 µM	> 100 µM	> 100 µM	> 100 µM	> 100 µM	> 100 µM	> 100 µM	> 100 µM	–	–	–	–	–	–	–	–	–	–	–	–
CC(C)(C)c1ccc(Oc2ccc(C#N)c(C#N)c2)c(C(C)(C)C)c1	> 100 µM	> 100 µM	> 64.9 µM	> 100 µM	> 100 µM	> 100 µM	> 100 µM	> 100 µM	–	–	–	–	–	–	–	–	–	–	–	–
O=C1C(c2ccc(Cl)cc2)=[N+]([O-])c2ccccc21	28.5 µM	–	68.5 µM	31.8 µM	26.8 µM	32.4 µM	30.3 µM	32.2 µM	–	–	–	–	–	–	–	–	–	–	–	–
O=C1C2c3[nH]c4ccccc4c3C3CCSCC3C2C(=O)N1c1ccccc1 (stereo unspecified)	> 100 µM	> 100 µM	> 100 µM	> 100 µM	> 100 µM	> 100 µM	> 100 µM	> 100 µM	–	–	–	–	–	–	–	–	–	–	–	–
COc1c2c(c(OC)c3c(=O)cc(C/C(=N/NC(=O)C[n+]4ccccc4)C(=O)Nc4cc(C)ccc4C)oc13)OCO2	> 100 µM	> 100 µM	> 100 µM	> 100 µM	> 100 µM	> 100 µM	> 100 µM	> 100 µM	–	–	–	–	–	–	–	–	–	–	–	–
N.N.NCCCCN.O=C([O-])CC(=O)[O-].O=C([O-])CC(=O)[O-].[Pt+4].[Pt+4]	> 100 µM	> 100 µM	> 100 µM	> 100 µM	> 100 µM	> 100 µM	> 100 µM	> 100 µM	–	–	26.9 µM	79 µM	> 100 µM	> 100 µM	> 100 µM	–	58.5 µM	> 100 µM	77.4 µM	–
Cc1ccc(C)c(NC(=O)CC2C(=O)Nc3ccccc3S2(=O)=O)c1 (stereo unspecified)	> 100 µM	> 100 µM	> 100 µM	96.2 µM	> 100 µM	> 100 µM	> 100 µM	> 100 µM	–	–	–	–	–	–	–	–	–	–	–	–
O=C(Nc1cccc(C2=NCCN2)c1)c1ccc(OCCCOc2ccc(C(=O)Nc3cccc(C4=NCCN4)c3)cc2)cc1	> 100 µM	84.6 µM	> 100 µM	–	–	–	–	45.7 µM	–	8.21 µM	21.8 µM	4.67 µM	1.25 µM	–	–	2.78 µM	–	–	1.41 µM	–
COC(=O)/C=C1\SC(=Nc2ccc(C(F)(F)F)cc2)N(CCc2c[nH]c3ccccc23)C1=O	2.9 µM	–	6.42 µM	3.3 µM	2.9 µM	3.45 µM	3.18 µM	3.47 µM	4.53 µM	3.32 µM	1.56 µM	–	1.66 µM	1.79 µM	1.5 µM	1.62 µM	1.69 µM	1.67 µM	1.62 µM	1.16 µM
COC1CCC2C(=O)CCCC2O1 (stereo unspecified)	> 100 µM	> 100 µM	> 100 µM	> 100 µM	> 100 µM	> 100 µM	> 100 µM	> 100 µM	–	–	–	–	–	–	–	–	–	–	–	–
COCC1N=C(c2ccc(OC)c(OCc3ccccc3)c2OC)O[C@H]1c1ccccc1 (stereo partly specified)	52.4 µM	–	> 100 µM	–	55 µM	66.4 µM	–	51.5 µM	–	–	–	–	–	–	–	–	–	–	–	–
COC(=O)C/C(C)=C/[C@@H](O)[C@H]1O[C@@H]2CC/C(Cl)=C/C/C=C(/C)[C@H](OC(C)=O)CC(=O)O[C@@H]1C2	4.51 µM	–	> 25 µM	–	–	7.4 µM	7.92 µM	1.67 µM	15.7 µM	4.13 µM	1.16 µM	–	4.34 µM	–	–	1.08 µM	1.01 µM	2.92 µM	0.694 µM	4.86 µM
Brc1nc2c3ccccc3ncn2c1Br	50.9 µM	79.5 µM	> 100 µM	33.2 µM	22.5 µM	> 100 µM	> 100 µM	49.2 µM	–	–	–	–	–	–	–	–	–	–	–	–
